Experimental data published in the supplement of paper PMC13380429.
± gives the standard deviation of the averaged measurements.

Columns and labels:
Details in all cases: 72 h
Calu-3 [1] = experiment: drug sensitivity score (DSS) for viability; higher = more toxic; extreme values may be limits of the assay
U2OS [2] = experiment: as above
Caco-2 [3] = experiment: as above
HepG2 [4] = experiment: as above
Vero E6 [5] = experiment: as above
Calu-3 [6] = experiment: relative viability EC50 (midpoint between 100% and the lowest measured viability); higher = less toxic
U2OS [7] = experiment: as above
Caco-2 [8] = experiment: as above
HepG2 [9] = experiment: as above
Vero E6 [10] = experiment: as above
Calu-3 [11] = experiment: cell viability relative to DMSO; higher = less toxic
U2OS [12] = experiment: as above
Caco-2 [13] = experiment: as above
HepG2 [14] = experiment: as above
Vero E6 [15] = experiment: as above

SMILES | drug sensitivity score (Calu-3 [1]) | drug sensitivity score (U2OS [2]) | drug sensitivity score (Caco-2 [3]) | drug sensitivity score (HepG2 [4]) | drug sensitivity score (Vero E6 [5]) | relative viability EC50 (Calu-3 [6]) [µM] | relative viability EC50 (U2OS [7]) [µM] | relative viability EC50 (Caco-2 [8]) [µM] | relative viability EC50 (HepG2 [9]) [µM] | relative viability EC50 (Vero E6 [10]) [µM] | cell viability (Calu-3 [11]; 1 nM) [%] | cell viability (Calu-3 [11]; 10 nM) [%] | cell viability (Calu-3 [11]; 100 nM) [%] | cell viability (Calu-3 [11]; 1000 nM) [%] | cell viability (Calu-3 [11]; 10000 nM) [%] | cell viability (U2OS [12]; 1 nM) [%] | cell viability (U2OS [12]; 10 nM) [%] | cell viability (U2OS [12]; 100 nM) [%] | cell viability (U2OS [12]; 1000 nM) [%] | cell viability (U2OS [12]; 10000 nM) [%] | cell viability (Caco-2 [13]; 1 nM) [%] | cell viability (Caco-2 [13]; 10 nM) [%] | cell viability (Caco-2 [13]; 100 nM) [%] | cell viability (Caco-2 [13]; 1000 nM) [%] | cell viability (Caco-2 [13]; 10000 nM) [%] | cell viability (HepG2 [14]; 1 nM) [%] | cell viability (HepG2 [14]; 10 nM) [%] | cell viability (HepG2 [14]; 100 nM) [%] | cell viability (HepG2 [14]; 1000 nM) [%] | cell viability (HepG2 [14]; 10000 nM) [%] | cell viability (Vero E6 [15]; 1 nM) [%] | cell viability (Vero E6 [15]; 10 nM) [%] | cell viability (Vero E6 [15]; 100 nM) [%] | cell viability (Vero E6 [15]; 1000 nM) [%] | cell viability (Vero E6 [15]; 10000 nM) [%]
O=C(c1ccc(Cl)cc1)N(Cc1ccccc1)C1CCCCC1 [FPS-ZM1] | 0 | 0 | 0 | 0 | 0 | > 10 | > 10 | > 10 | > 10 | > 10 | 105 | 96.3 | 102 | 99.3 | 89.7 | 98 | 98.6 | 97.4 | 100 | 96.2 | 101 | 91.6 | 93.3 | 102 | 89.4 | 106 | 106 | 102 | 92.9 | 93.8 | 97.6 | 97.7 | 99.3 | 101 | 90.8
CO/N=C(\C(=O)N[C@@H]1C(=O)N2C(C(=O)OCOC(=O)C(C)(C)C)=C(C)CS[C@H]12)c1csc(N)n1 [cefetamet-pivoxil] | 0 | 0 | 0 | 0 | 0 | > 10 | > 10 | > 10 | > 10 | > 10 | 104 | 93.2 | 102 | 114 | 103 | 102 | 93.5 | 99.6 | 104 | 99.5 | 108 | 96.5 | 105 | 99.7 | 97.9 | 102 | 113 | 90.9 | 97.8 | 93 | 91.5 | 103 | 89.5 | 91.7 | 108
CCCC[C@H]1OC(=O)c2ccccc21 [butylphthalide] | 0 | 0 | 0 | 0 | 0 | > 10 | > 10 | > 10 | > 10 | > 10 | 103 | 96.8 | 98.3 | 95.5 | 104 | 102 | 98.9 | 102 | 95 | 98.7 | 111 | 95.2 | 102 | 88.9 | 102 | 104 | 107 | 97.2 | 97.8 | 94.9 | 103 | 91 | 105 | 106 | 101
Fc1cc(F)c2c(c1)[C@H]1C=CC[C@H]1C(c1cccnc1)N2 (stereo not given in full) [Golgicide A] | 4.7 | 5.1 | 4 | 4.5 | 5.3 | 3.01 | 3.46 | 2.97 | 3.48 | 3.2 | 103 | 108 | 108 | 98.2 | 19 | 103 | 101 | 105 | 105 | 1.7 | 108 | 103 | 101 | 98.2 | 31.5 | 121 | 108 | 102 | 105 | 10.9 | 111 | 108 | 105 | 100 | 4.4
C[C@@H](C1=C(CCN(C)C)Cc2ccccc21)c1ccccn1 (racemic) [dimetindene] | 0 | 0 | 0 | 0 | 0 | > 10 | > 10 | > 10 | > 10 | > 10 | 98.2 ± 2 | 113 ± 4 | 103.2 ± 0.21 | 105 ± 3.2 | 96 ± 2 | 99.5 ± 0.57 | 104 ± 1.8 | 99.3 ± 7.8 | 100 ± 1.4 | 94.8 ± 2.6 | 93.1 ± 6.5 | 98.2 ± 4.7 | 96.3 ± 4.6 | 102 ± 10 | 104.8 ± 0.92 | 104 ± 4.7 | 98 ± 4.8 | 106 ± 5.9 | 89.7 ± 3.2 | 103 ± 2.5 | 97.2 ± 8 | 98.2 ± 1.2 | 100.2 ± 0.78 | 100 | 96.5 ± 8
COc1ccc(Cl)cc1NC(=O)Nc1cc(C)nc2ccccc12 [PQ-401] | 0 | 0.1 | 1.1 | 0.4 | 0 | > 10 | > 10 | > 10 | > 10 | > 10 | 106 | 93.4 | 107 | 94.9 | 100 | 98.2 | 98.5 | 100 | 101 | 86.1 | 93.8 | 97 | 108 | 97.6 | 77.8 | 99.1 | 106 | 92 | 103 | 80.3 | 96.4 | 95.3 | 92.8 | 96.4 | 90.8
N#CCCCSC(=N)N [kevetrin] | 0 | 0 | 0 | 0 | 0 | > 10 | > 10 | > 10 | > 10 | > 10 | 108 | 90.9 | 92.8 | 105 | 93.1 | 97.9 | 102 | 96.3 | 97.5 | 96.3 | 92 | 99.3 | 96.6 | 99.8 | 99.7 | 107 | 97.4 | 101 | 93.6 | 101 | 96.6 | 98.4 | 92.6 | 101 | 98.9
